Test results reported in ChEMBL document CHEMBL4834480, “Discovery of 3,5-Dimethyl-4-Sulfonyl-1H-Pyrrole-Based Myeloid Cell Leukemia 1 Inhibitors with High Affinity, Selectivity, and Oral Bioavailability” (J Med Chem, 2021).
Blank lines part the entries; values can stand above or below the molecule they belong to. Active and inactive are the calls of the source. The rule behind the calls is not given here.

What was measured:
[1] = target: T1, Induced myeloid leukemia cell differentiation protein Mcl-1 (Homo sapiens, UniProt Q07820); test: Inhibition of FITC-labeled Bak BH3 peptide binding to GST-tagged MCL1 (171 to 327 residues) (unknown origin) expressed in Escherichia coli BL21 (DE3) incubated for 30 mins fluorescence polarization-based competitive binding assay
NCI-H929 [2] = test: Antiproliferative activity against human NCI-H929 cells assessed as decrease in cell viability measured after 72 hrs by MTT assay; format: functional, cell-based; conditions: NCI-H929, 72 h
MV4-11 [3] = test: Antiproliferative activity against human MV4-11 cells assessed as decrease in cell viability measured after 72 hrs by MTT assay; format: functional, cell-based; conditions: MV4-11, 72 h
SK-BR-3 = test: Antiproliferative activity against human SK-BR-3 cells assessed as decrease in cell viability measured after 72 hrs by MTT assay; format: functional, cell-based; conditions: SK-BR-3, 72 h
NCI-H23 = test: Antiproliferative activity against human NCI-H23 cells assessed as decrease in cell viability measured after 72 hrs by MTT assay; format: functional, cell-based; conditions: NCI-H23, 72 h
K562 [4] = test: Antiproliferative activity against human K562 cells assessed as decrease in cell viability measured after 72 hrs by MTT assay; format: functional, cell-based; conditions: K562, 72 h
NCI-H929 [5] = test: Induction of apoptosis in human NCI-H929 cells measured after 48 hrs by annexinV-FITC/propidium iodide staining based flow cytometry analysis; format: functional, cell-based; conditions: dose 1-5 µM
NCI-H929 [6] = test: Induction of apoptosis in human NCI-H929 cells assessed as upregulation of cleaved PARP measured after 48 hrs by Western blot analysis; format: functional, cell-based; conditions: dose microM <=5, time 48.0 hrs
K562 [7] = test: Induction of apoptosis in human K562 cells assessed as upregulation of cleaved PARP up to 5 uM measured after 48 hrs by Western blot analysis; format: functional, cell-based; conditions: dose microM <=5, time 48.0 hrs
K562 [8] = test: Induction of apoptosis in human K562 cells assessed as activation of caspase 3 up to 5 uM after 4 hrs by luminescence based microplate reader assay; format: functional, cell-based; conditions: dose microM <=5, time 4.0 hrs
K562 [9] = test: Induction of apoptosis in human K562 cells assessed as activation of caspase 7 up to 5 uM after 4 hrs by luminescence based microplate reader assay; format: functional, cell-based; conditions: dose microM <=5, time 4.0 hrs
Bcl-2-like protein 1 = Bcl-2-like protein 1 (Homo sapiens, UniProt Q07817); test: Inhibition of BCL-XL(unknown origin) at 10 uM incubated for 120 mins by TR-FRET assay relative to control
[10] = target: Apoptosis regulator Bcl-2 (Homo sapiens, UniProt P10415); test: Inhibition of FITC-labeled Bak BH3 peptide binding to GST-tagged BCL2 (1 to 205 residues) (unknown origin) expressed in Escherichia coli BL21 (DE3) at 10 uM incubated for 30 mins fluorescence polarization-based competitive binding assay relative to control
[11] = target: T2, Bcl-2-related protein A1 (Homo sapiens) (UniProt Q16548); test: Inhibition of FITC-labeled Bak BH3 peptide binding to GST-tagged BFL1 (1 to 151 residues) (unknown origin) expressed in Escherichia coli BL21 (DE3) at 10 uM incubated for 30 mins fluorescence polarization-based competitive binding assay relative to control
T2 sequence (whole entry): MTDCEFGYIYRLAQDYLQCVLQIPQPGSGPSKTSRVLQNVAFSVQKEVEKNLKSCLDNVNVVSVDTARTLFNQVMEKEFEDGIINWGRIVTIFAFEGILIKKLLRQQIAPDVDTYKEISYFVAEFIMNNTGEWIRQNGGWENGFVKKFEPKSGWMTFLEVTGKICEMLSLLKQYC

MV4-11 [12] = test: Antitumor activity against human MV4-11 cells xenografted in BALB/c nude mouse assessed as tumor growth inhibition by measuring T/C ratio at 10 mg/kg, ip administered every two days for 14 days relative to control; format: functional; conditions: time 14 day
MV4-11 [13] = test: Induction of apoptosis in human MV4-11 cells xenografted in BALB/c nude mouse assessed as induction of PARP cleavage at 10 mg/kg, ip administered every two days for 14 days by Western blot analysis; format: functional, organism-based; conditions: time 14.0 day
[14] = target: T1, Induced myeloid leukemia cell differentiation protein Mcl-1; test: Inhibition of FITC-labeled Bak BH3 peptide binding to GST-tagged MCL1 (171 to 327 residues) (unknown origin) expressed in Escherichia coli BL21 (DE3) at 30 uM incubated for 30 mins fluorescence polarization-based competitive binding assay relative to control

Apoptosis regulator Bcl-2, sequence (P10415 whole entry, the tested form may be a part): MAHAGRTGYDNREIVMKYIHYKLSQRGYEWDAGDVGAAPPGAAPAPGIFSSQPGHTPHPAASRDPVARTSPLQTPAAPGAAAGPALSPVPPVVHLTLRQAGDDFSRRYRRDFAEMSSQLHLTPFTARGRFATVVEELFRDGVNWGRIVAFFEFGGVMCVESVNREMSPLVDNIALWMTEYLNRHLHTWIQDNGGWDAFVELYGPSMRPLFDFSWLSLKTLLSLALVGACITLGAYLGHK
Bcl-2-like protein 1, sequence (Q07817 whole entry, the tested form may be a part): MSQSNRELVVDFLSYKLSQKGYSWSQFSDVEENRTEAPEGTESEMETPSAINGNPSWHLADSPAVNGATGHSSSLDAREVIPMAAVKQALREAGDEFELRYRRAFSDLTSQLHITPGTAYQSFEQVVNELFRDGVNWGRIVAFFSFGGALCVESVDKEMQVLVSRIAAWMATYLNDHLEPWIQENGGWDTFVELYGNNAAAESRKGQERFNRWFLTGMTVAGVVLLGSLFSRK
T1 sequence (Q07820 whole entry, the tested form may be a part): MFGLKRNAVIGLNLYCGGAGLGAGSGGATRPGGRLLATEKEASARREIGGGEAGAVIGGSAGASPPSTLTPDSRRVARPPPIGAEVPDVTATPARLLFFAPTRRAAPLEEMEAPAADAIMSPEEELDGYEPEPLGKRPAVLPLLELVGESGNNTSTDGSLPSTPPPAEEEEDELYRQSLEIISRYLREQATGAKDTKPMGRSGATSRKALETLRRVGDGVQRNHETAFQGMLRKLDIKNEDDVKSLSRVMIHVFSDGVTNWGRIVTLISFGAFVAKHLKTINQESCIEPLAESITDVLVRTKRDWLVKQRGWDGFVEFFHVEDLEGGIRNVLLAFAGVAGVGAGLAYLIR

SMILES: Cc1cc(OCCCn2c(C)c(S(=O)(=O)c3ccc(N)cc3)c(C)c2C(=O)O)cc(C)c1Cl
Ki [1]: 340 nM

SMILES: Cc1cc(OCCCn2c(C)c(S(=O)(=O)c3ccc(F)cc3)c(C)c2C(=O)O)cc(C)c1Cl
Ki [1]: 260 nM

SMILES: Cc1ccc(S(=O)(=O)c2c(CC(C)C)c(C(=O)O)n(CCCOc3cc(C)c(Cl)c(C)c3)c2C)cc1
Ki [1]: 240 nM

SMILES: Cc1cc(OCCCn2c(C)c(S(=O)(=O)c3cccc(Br)c3)c(C)c2C(=O)O)cc(C)c1Cl
Ki [1]: 60 nM

SMILES: COc1ccc(S(=O)(=O)c2c(C)c(C(=O)O)n(CCCOc3cc(C)c(Cl)c(C)c3)c2C)cc1
inhibition (Bcl-2-like protein 1): 27% | Ki [1]: 70 nM | inhibition [10]: 14.2% | inhibition [11]: 1.82% | IC50 (NCI-H929 [2]): 390 nM | IC50 (MV4-11 [3]): 1560 nM | IC50 (SK-BR-3): 6270 nM | IC50 (NCI-H23): 9720 nM | IC50 (K562 [4]): > 30000 nM

SMILES: Cc1ccc(S(=O)(=O)c2c(C)c(C(=O)O)n(CCCOc3cc(C)c(Cl)c(C)c3)c2C)cc1
Ki [1]: 170 nM

SMILES: CCOc1ccc(S(=O)(=O)c2c(C)c(C(=O)O)n(CCCOc3cc(C)c(Cl)c(C)c3)c2C)cc1
Ki [1]: 140 nM

SMILES: Cc1cc(OCCCn2c(C)c(S(=O)(=O)c3cccc(O)c3)c(C)c2C(=O)O)cc(C)c1Cl
Ki [1]: 150 nM

SMILES: Cc1ccc(Cc2cc(C(=O)O)n(CCCOc3cc(C)c(Cl)c(C)c3)c2)cc1
Ki [1]: 5340 nM | inhibition [14]: 53%

SMILES: Cc1cc(OCCCn2c(C)c(S(=O)(=O)c3cccs3)c(C)c2C(=O)O)cc(C)c1Cl
inhibition (Bcl-2-like protein 1): 37% | Ki [1]: 80 nM | inhibition [10]: 7.54% | IC50 (NCI-H929 [2]): 700 nM | IC50 (MV4-11 [3]): 2300 nM | IC50 (SK-BR-3): 5130 nM | IC50 (NCI-H23): 3100 nM | IC50 (K562 [4]): 11300 nM

SMILES: CC(=O)c1cccc(S(=O)(=O)c2c(C)c(C(=O)O)n(CCCOc3cc(C)c(Cl)c(C)c3)c2C)c1
Ki [1]: 550 nM

SMILES: Cc1cc(OCCCn2c(C)c(S(=O)(=O)c3ccc(C(C)C)cc3)c(C)c2C(=O)O)cc(C)c1Cl
Ki [1]: 170 nM

SMILES: Cc1cc(OCCCn2c(C)c(S(=O)(=O)c3ccc(C(=O)O)cc3)c(C)c2C(=O)O)cc(C)c1Cl
Ki [1]: 420 nM

SMILES: Cc1cc(OCCCn2c(C)c(S(=O)(=O)c3ccc(C(C)(C)C)cc3)c(C)c2C(=O)O)cc(C)c1Cl
Ki [1]: 340 nM

SMILES: Cc1cc(OCCCn2c(C)c(S(=O)(=O)c3ccc(Br)cc3)c(C)c2C(=O)O)cc(C)c1Cl
inhibition (Bcl-2-like protein 1): 13% | Ki [1]: 40 nM | inhibition [10]: 11.6% | inhibition [11]: 4.14% | IC50 (NCI-H929 [2]): 480 nM | IC50 (MV4-11 [3]): 1700 nM | IC50 (SK-BR-3): 5600 nM | IC50 (NCI-H23): 3840 nM | IC50 (K562 [4]): > 30000 nM

SMILES: Cc1cc(OCCCn2c(C)c(S(=O)(=O)C3CCCC3)c(C)c2C(=O)O)cc(C)c1Cl
Ki [1]: > 10000 nM

The next lines start with results.

Ki [1]: 6 nM | IC50 (NCI-H929 [2]): 900 nM | IC50 (MV4-11 [3]): 1550 nM | IC50 (SK-BR-3): 4310 nM | IC50 (NCI-H23): 13500 nM | IC50 (K562 [4]): > 30000 nM
SMILES: Cc1nn(C)c(COc2ccc(N3CCN(S(=O)(=O)N(C)C)CC3)cc2)c1-c1cccc2c(CCCOc3cccc4ccccc34)c(C(=O)O)n(CCN3CCOCC3)c12
Activity (NCI-H929 [5]): Dose-Dependent Effect | Activity (NCI-H929 [6]): Dose-Dependent Effect | Activity (K562 [7]): inactive | Activity (K562 [8]): inactive | Activity (K562 [9]): inactive

IC50 (NCI-H929 [2]): 36 nM | IC50 (MV4-11 [3]): 24 nM | IC50 (SK-BR-3): 30000 nM | IC50 (NCI-H23): 190 nM | IC50 (K562 [4]): 29600 nM
SMILES: Cc1c2c(nn1C)CSCc1cc(n(C)n1)CSc1cc(c3ccccc3c1)OCCCc1c(C(=O)O)n(C)c3c-2c(Cl)ccc13 [AZD-5991]
T/C (MV4-11 [12]): 5.18% | Activity (MV4-11 [13]): Active

Ki [1]: 150 nM
SMILES: Cc1cc(OCCCn2c(C)c(S(=O)(=O)c3ccccc3O)c(C)c2C(=O)O)cc(C)c1Cl

Ki [1]: 130 nM
SMILES: Cc1cc(OCCCn2c(C)c(S(=O)(=O)c3ccc(-c4ccccc4)cc3)c(C)c2C(=O)O)cc(C)c1Cl

Ki [1]: 380 nM
SMILES: Cc1cc(OCCCn2c(C)c(S(=O)(=O)c3ccc(C(=O)c4ccccc4)cc3)c(C)c2C(=O)O)cc(C)c1Cl

Ki [1]: 190 nM
SMILES: Cc1cc(OCCCn2c(C)c(S(=O)(=O)c3ccccc3)c(C)c2C(=O)O)cc(C)c1Cl

Ki [1]: 430 nM
SMILES: COc1ccccc1S(=O)(=O)c1c(C)c(C(=O)O)n(CCCOc2cc(C)c(Cl)c(C)c2)c1C

Ki [1]: > 10000 nM
SMILES: Cc1cc(OCCCn2c(C)c(S(=O)(=O)c3ccccc3Br)c(C)c2C(=O)O)cc(C)c1Cl
